Assay results reported in patent US20250327034A1, “CELL CULTURE MEDIUM” (Ajinomoto Co., Inc., priority 2022, published 2025).

Tested on: CHO cell
Assay: CHO cell fed-batch culture (ambr15) with high L-cysteine feed: antibody yield (Example 6)
Assay type: cell-based, Chinese hamster
Conditions: CHO cells, 11 mM, 18 mM and 23-24 mM equivalent L-cysteine feed sections
Method: Basal media were prepared by adding a final concentration of 4 mM L-Glutamine (Thermo Fisher Scientific: 25030081) to media that were designed on the basis of CELLIST™ Basal media (AJINOMOTO CO., INC.: BASAL10).
Feed Media A were prepared on the basis of the commercially available CELLIST™ Feed media (AJINOMOTO CO., INC.: FEED 2). Feed media A containing a final concentration of 11 or 18 mM L-cysteine and 60 g/L glucose were prepared to have a pH of 6.7-6.9 according to the procedures described in the product instructions for FEED 2.
A 110 mM L-cysteine solution (pH 11.3) was prepared.
Using the prepared basal media, CHO suspensions adjusted to 7×10^5 celllls/mL were cultured for 14 days using the ambr15 cell culture system (Sartorius AG). All of the experimental groups were performed with n=2. […] The antibody yields on day 14 in these conditioned sections were measured using Cedex Bio HT (Roche Diagnostics K.K.)

## N[C@@H](CS)C(=O)O [L-cysteine]
  Antibody yield on day 14: improves the antibody yield
